The target in assay [1] is T1, recombinant human ALKBH2 protein (Homo sapiens, UniProt Q6NS38).
T1 sequence (Q6NS38 1-261): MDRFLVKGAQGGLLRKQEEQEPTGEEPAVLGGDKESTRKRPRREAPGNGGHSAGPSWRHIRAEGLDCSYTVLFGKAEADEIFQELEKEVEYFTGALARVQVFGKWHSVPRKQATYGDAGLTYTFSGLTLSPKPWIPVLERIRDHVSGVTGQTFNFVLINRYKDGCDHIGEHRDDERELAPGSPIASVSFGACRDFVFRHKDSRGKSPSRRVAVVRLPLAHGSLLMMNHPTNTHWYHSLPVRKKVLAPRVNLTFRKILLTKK
Kind of assay: Fe. The class given is biochemical. The conditions noted are these: for change of repair efficiency with increasing Fe(II) ion: rhein 50 μM.

Assay [2] deals with T1, recombinant human ALKBH2 protein. As to the kind of experiment: α-ketoglutarate competitor test: ALKBH2 repair with varying αKG and fixed Fe. The format is biochemical. Particulars: for change of repair efficiency with increasing αKG: Fe(II) 10 μM, rhein 50 μM, compound 7 2 μM.

Experimental findings from article PMC6890495 (Chemical research in toxicology, 2019) are described below.

`O=C(O)c1cc(O)c(O)c(O)c1` [compound 2, gallic acid]: in assay [1] (Fe(II) 5 to 80 μM, αKG 93 μM), the “change of repair efficiency with increasing Fe(II) ion” value (“change … with increasing Fe(II) ion” below) was “recovered in a concentration-dependent manner”.
Same read-out and setting: as for `O=C(OC[C@H]1O[C@@H](OC(=O)c2cc(O)c(O)c(O)c2)[C@H](OC(=O)c2cc(O)c(O)c(O)c2)[C@@H](OC(=O)c2cc(O)c(O)c(O)c2)[C@@H]1OC(=O)c1cc(O)c(O)c(O)c1)c1cc(O)c(O)c(O)c1` [compound 5, pentagalloyl glucose], the entry is “recovered in a concentration-dependent manner”.
For `O=C(O)c1cc(O)c2c(c1)C(=O)c1cccc(O)c1C2=O` [rhein, Rhein, reference compound], the repair efficiency entry in assay [1] (50 μM rhein, Fe(II) 5 to 80 μM, αKG fixed at 93 μM) is reported as “around 36%”. Besides, the “change … with increasing Fe(II) ion” value in assay [1] (Fe(II) 5 to 80 μM, αKG 93 μM) is “no significant change”. Also, the repair ratio in assay [2] (50 μM rhein, 50 μM αKG, Fe(II) fixed at 10 μM) stood at 30%. Moreover, the “change of repair efficiency with increasing αKG” value in assay [2] (αKG 50 to 800 μM) is “recovered in a concentration-dependent manner”.
As for tannic acid [compound 7], the “reactivity (repair)” value in assay [1] (5 μM Fe(II) ion, αKG kept at 93 μM) was determined as 5%. In addition, the “change … with increasing Fe(II) ion” value in assay [1] (Fe(II) 5 to 80 μM, αKG 93 μM) is given as “restored in a concentration-dependent manner”. Besides, the repair efficiency entry in assay [1] (Fe(II) ion concentration increased up to 80 μM, αKG 93 μM, control ~95% repair) was “up to 60%”; in assay [2] (2 μM compound, αKG 50 to 800 μM, Fe(II) kept at 10 μM), ~ 25%. For the same compound, the “change of repair efficiency with increasing αKG” value in assay [2] (αKG 50 to 800 μM) is on record as “did not vary significantly”.
